Like-named read-outs stand apart in the source and are kept apart here.
Key:
[1] = system: SARS-CoV-2
[2] = system: SARS-CoV-2; test: microbe, parasite or virus in culture; conditions: Severe acute respiratory syndrome coronavirus 2, Vero C1008, 55 h, read-out: viability in comparison with non-infected cells

Compound	cell viability in comparison with non-infected cells ([1]; 1 µM)	cell viability in comparison with non-infected cells ([1]; 10 µM)	viability at 25 µM [2]
C=C[C@H](OC(C)=O)c1ccc(OC(C)=O)cc1 [AAC, acetoxychavicol acetate]	59%	66%	
CCC(CC)COC(=O)[C@H](C)N[P@](=O)(OC[C@H]1O[C@@](C#N)(c2ccc3c(N)ncnn23)[C@H](O)[C@@H]1O)Oc1ccccc1 [Remdesivir]			97%

Source: EP4205753A1, “ANTIVIRAL PLANT EXTRACT COMPOSITION AND METHOD FOR PREPARING SUCH COMPOSITION” (priority 2021, dated 2023)
